{"source": "paper PMC7734574", "about": "(International Journal of Molecular Sciences, 2020)", "key": {"[1]": {"experiment": "thermal back isomerization (half-life of the metastable form) by UV/VIS spectroscopy", "assay_type": "physicochemical", "details": "37 °C, DMSO (UV/VIS)", "method": "For the meta-linked derivative 3 (Figure 6a), a maximum shift of the PSS toward the Z-isomer can be achieved by irradiation at 365 nm. By NMR spectroscopy, a Z-isomer content of 83% was determined in the PSS. […] Back switching to the E-isomers E-3 and E-4 is possible by irradiation at 435 nm (3) or 470 nm (4), respectively. Furthermore, half-lives of the azobenzene derivatives were determined by UV/VIS spectroscopy at 37 °C in DMSO.\n(§1) UV/VIS spectra were measured using a Varian Cary® 50 Scan UV/VIS photometer from Agilent (Waldbronn, Germany) equipped with a Varian Cary PCB 150 thermostat either at 25 °C or 37 °C. […] The fitting of thermal relaxations was done with GraphPad Prism® (v.7.03, GraphPad Software, San Diego, CA, USA)."}, "[2]": {"experiment": "isomer ratio of the photostationary state by NMR spectroscopy", "assay_type": "physicochemical", "excerpt": "(§2) In order to determine the isomer ratios of the PSS as well as to identify the optimal excitation wavelengths for the E/Z isomerizations, compounds 3–7 were characterized by UV/VIS and NMR spectroscopy. Due to their poor water solubility along with the low molar absorption coefficients of diazocines, all compounds were initially analyzed in DMSO."}, "[3]": {"experiment": "photoswitching followed by UV/VIS spectroscopy", "assay_type": "physicochemical", "details": "for photoconversion on back switching to the E-isomer: DMSO", "excerpt": "as §2\nBy irradiation at 530 nm, the diazocine-based compounds 5–7 can be switched back quantitatively to the Z-isomer. Since the associated spectra completely overlap with the spectra of the pure Z-isomers, they are not shown for reasons of clarity. To check the reversibility of the photoswitching, long-term stability measurements with 20 switching cycles were performed. For this purpose, the compounds were irradiated alternately for 20 s at 405 nm and 530 nm, respectively. After each irradiation, an UV/VIS spectrum was recorded.\nas §1"}, "[4]": {"target": "T1, VEGFR-2 (purified kinase domain, KDR active) (Homo sapiens, UniProt P35968)", "T1 sequence (P35968 834-1162 limits assumed)": "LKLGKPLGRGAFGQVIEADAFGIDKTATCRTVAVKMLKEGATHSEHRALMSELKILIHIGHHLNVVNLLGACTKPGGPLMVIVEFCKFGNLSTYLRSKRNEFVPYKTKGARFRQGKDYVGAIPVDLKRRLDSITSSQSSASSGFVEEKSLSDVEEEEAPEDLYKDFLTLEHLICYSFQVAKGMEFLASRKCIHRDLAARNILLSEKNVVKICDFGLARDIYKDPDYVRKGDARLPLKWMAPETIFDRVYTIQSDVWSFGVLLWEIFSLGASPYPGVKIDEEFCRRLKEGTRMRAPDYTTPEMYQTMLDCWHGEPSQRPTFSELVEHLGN", "experiment": "luminescence-based ADP-Glo kinase assay under controlled light conditions", "assay_type": "biochemical", "design": "VEGFR-2 (purified kinase domain, KDR active, Promega); purchased Promega"}, "[5]": {"details": "axitinib, DMSO (NMR), cited from earlier work"}, "[6]": {"target": "T1, VEGFR-2 (purified kinase domain, KDR active)", "details": "cited from earlier work"}, "[7]": {"test_system": "lysates of human umbilical vein endothelial cells (HUVECs)", "experiment": "kinome activity profiling (PamGene) of treated cell lysate", "assay_type": "biochemical", "details": "20 µM, irradiated at 405 nm, HUVEC lysate, 10% DMSO"}, "[8]": {"details": "DMSO, NMR, irradiation at 365 nm"}, "[9]": {"details": "E-isomer, in the dark (unirradiated), 1% DMSO"}, "[10]": {"details": "both irradiated and unirradiated compounds"}, "[11]": {"details": "DMSO (NMR), irradiation at 405 nm"}, "[12]": {"details": "PSS after irradiation at 405 nm, 10% DMSO"}, "[13]": {"details": "Z-isomer, in the dark (unirradiated), 10% DMSO"}, "[14]": {"details": "after irradiation at 405 nm, 10% DMSO"}}, "note": "pIC50: −log10 of the molar value. Where two headings read alike, the source gives them in different places."}
{"smiles": "CNC(=O)c1ccccc1Sc1ccc2c(-c3cccc(/N=N/c4ccccc4)c3)n[nH]c2c1", "note": "[Compound 3, (E)‐N‐methyl‐2‐((3‐(3‐(phenyldiazenyl)phenyl)‐1H‐indazol‐6‐yl)thio) benzamide]", "values": [{"measurement": "k of exponential fit of thermal back isomerization", "setting": "[1]", "value": 0.01608}, {"measurement": "PSS (E/Z%)", "setting": "[2]; [8]", "value": "17/83"}, {"measurement": "Z-isomer content in the PSS", "setting": "[2]; [8]", "value": 83, "unit": "%"}, {"measurement": "photoconversion on back switching to the E-isomer", "setting": "[3]; irradiation at 435 nm", "value": "almost quantitative"}, {"measurement": "residual activity (plateau)", "setting": "[4]; E-isomer in the dark", "value": 33, "unit": "%"}, {"measurement": "pIC50", "setting": "[4]; [9]", "value": 5.97}, {"measurement": "pIC50", "setting": "[4]; PSS after irradiation at 365 nm, 1% DMSO", "value": 5.89}, {"measurement": "residual activity (plateau)", "setting": "[4]; after irradiation at 365 nm", "value": 5, "unit": "%"}, {"measurement": "pIC50", "setting": "[4]; [10]", "value": "~6.00"}]}
{"smiles": "CNC(=O)c1ccccc1Sc1ccc2c(-c3ccc(/N=N/c4ccccc4)cc3)n[nH]c2c1", "note": "[Compound 4, (E)‐N‐methyl‐2‐((3‐(4‐(phenyldiazenyl)phenyl)‐1H‐indazol‐6‐yl)thio) benzamide]", "values": [{"measurement": "k of exponential fit of thermal back isomerization", "setting": "[1]", "value": 0.121}, {"measurement": "PSS (E/Z%)", "setting": "[2]; DMSO (NMR), irradiation at 385 nm", "value": "20/80"}, {"measurement": "photoconversion on back switching to the E-isomer", "setting": "[3]; irradiation at 470 nm", "value": "almost quantitative"}, {"measurement": "residual activity (plateau)", "setting": "[4]; E-isomer in the dark", "value": 43, "unit": "%"}, {"measurement": "pIC50", "setting": "[4]; [9]", "value": 5.99}, {"measurement": "pIC50", "setting": "[4]; PSS after irradiation at 385 nm, 1% DMSO", "value": 5.84}, {"measurement": "residual activity (plateau)", "setting": "[4]; after irradiation at 385 nm", "value": 13, "unit": "%"}, {"measurement": "pIC50", "setting": "[4]; [10]", "value": "~6.00"}]}
{"smiles": "CNC(=O)c1ccccc1Sc1ccc2c(-c3ccc4c(c3)/N=N\\c3ccccc3CC4)n[nH]c2c1", "note": "[Compound 7, (Z)‐2‐((3‐(11,12‐dihydrodibenzo[c,g][1,2]diazocin‐3‐yl)‐1H‐indazol‐6‐yl)thio)‐N‐methylbenzamide]", "values": [{"measurement": "k of exponential fit of thermal back isomerization", "setting": "[1]", "value": 0.4711}, {"measurement": "PSS (E/Z%)", "setting": "[2]; [11]", "value": "60/40"}, {"measurement": "E-isomer content in the PSS", "setting": "[2]; DMSO, irradiation at 405 nm", "value": 60, "unit": "%"}, {"measurement": "pIC50", "setting": "[4]; [12]", "value": 6.31}, {"measurement": "residual activity", "setting": "[4]; Z-isomer in the dark, 10% DMSO", "value": "≥ 37", "unit": "%"}]}
{"smiles": "CNC(=O)c1ccccc1Sc1ccc2c(/C=C/c3ccccn3)n[nH]c2c1", "note": "[Compound 1, Axitinib]", "values": [{"measurement": "PSS (E/Z%)", "setting": "[5]; 365 nm (E → Z)", "value": "51/49"}, {"measurement": "PSS (E/Z%)", "setting": "[5]; 385 nm (Z → E)", "value": "88/12"}, {"measurement": "difference in biological activities of Z-axitinib and E-axitinib", "setting": "[6]", "value": 43, "unit": "fold"}]}
{"smiles": "CNC(=O)c1ccccc1Sc1ccc2c(/N=N/c3ccccn3)n[nH]c2c1", "note": "[Compound 2, (E)‐N‐methyl‐2‐((3‐(pyridin‐2‐yldiazenyl)‐1H‐indazol‐6‐yl)thio)benzamide]", "values": [{"measurement": "spectral change upon irradiation", "setting": "[3]; 20 µM in DMSO and water with 10 % DMSO, 365, 385, 405, 420 and 470 nm", "value": "No spectral change"}, {"measurement": "pIC50", "setting": "[4]; [9]", "value": 6.38}]}
{"smiles": "CNC(=O)c1ccccc1Sc1ccc2c(-c3ccc4c(c3)CSc3ccccc3/N=N\\4)n[nH]c2c1", "note": "[Compound 6, (Z)‐2‐((3‐(12H‐dibenzo[b,f][1,4,5]thiadiazocin‐2‐yl)‐1H‐indazol‐6‐yl)thio)‐N‐methylbenzamide]", "values": [{"measurement": "k of exponential fit of thermal back isomerization", "setting": "[1]", "value": 0.1853}, {"measurement": "PSS (E/Z%)", "setting": "[2]; [11]", "value": "25/75"}, {"measurement": "E-isomer content in the PSS", "setting": "[2]; DMSO, irradiation at 405 nm", "value": 25, "unit": "%"}, {"measurement": "pIC50", "setting": "[4]; [12]", "value": 6.60}, {"measurement": "pIC50", "setting": "[4]; [13]", "value": "< 5.00"}, {"measurement": "residual activity (plateau)", "setting": "[4]; [14]", "value": 10, "unit": "%"}]}
{"smiles": "CNC(=O)c1ccccc1Sc1ccc2c(-c3ccc4c(c3)/N=N\\c3ccccc3SC4)n[nH]c2c1", "note": "[Compound 5, (Z)‐2‐((3‐(12H‐dibenzo[b,f][1,4,5]thiadiazocin‐3‐yl)‐1H‐indazol‐6‐yl)thio)‐N‐methylbenzamide]", "values": [{"measurement": "k of exponential fit of thermal back isomerization", "setting": "[1]", "value": 0.09514}, {"measurement": "PSS (E/Z%)", "setting": "[2]; [11]", "value": "47/53"}, {"measurement": "kinase activities (phosphorylation degree of substrate peptides) compared to DMSO", "setting": "[7]", "value": "moderate decrease of kinase activities"}, {"measurement": "pIC50", "setting": "[4]; [12]", "value": 6.67}, {"measurement": "pIC50", "setting": "[4]; [13]", "value": "< 5.00"}, {"measurement": "residual activity (plateau)", "setting": "[4]; [14]", "value": 6, "unit": "%"}]}
